Results on twelve compounds are retold here after patent US12209079B2 (GENERAL INCORPORATED ASSOCIATION PHARMA VALLEY PROJECT …, priority 2017, dated 2025).

Structures can show the parent of a compound that is named as a salt.

In test [1] the target is rhIDO (recombinant human IDO) (Homo sapiens, UniProt P14902). The test can be described thus: Enzyme assay using rhIDO (rate of kynurenine production). It counts as biochemical. As to conditions: 2 h; final concentration of the compound 10 μM; rate relative to reaction without compound; read-out: rhIDO-mediated kynurenine production. As to the method: Enzyme Assay Protocol Using rhIDO (Recombinant Human IDO)
4 μL of a compound solution was added to 176 μL of a rhIDO reaction solution (0.5 M potassium phosphate buffer (20 μL), 0.2 M ascorbic acid (20 μL), 0.5 mM methylene blue (4 μL), 10 mg/mL catalase (2 μL), H2O (128 μL), and rhIDO (2 μL)). The mixture was pipetted and preincubated at 37° C. for 10 minutes. Then, the whole amount was brought to 200 μL by the addition of 20 μL of a 2 mM aqueous tryptophan solution, and the mixture was pipetted again and reacted at 37° C. for 120 minutes. After the reaction, the enzymatic reaction was terminated by the addition of 40 μL of a 30% [v/v] aqueous trichloroacetic acid solution to the reaction solution. The mixture was well stirred by pipetting and heated at 50° C. for 15 minutes so that N-formylkynurenine was converted to kynurenine. The reaction solution thus heated was centrifuged (15,000 rpm, 5 min, 24° C.), and 150 μL of the supernatant was transferred to a transparent 96-well flat-bottomed plate, followed by the measurement of absorbance at 490 nm using SpectraMax MSSK (background measurement). After the measurement, a solution of 2% [w/v] p-dimethylbenzaldehyde in acetic acid was added at 150 μL/well and reacted for 5 minutes, followed by the measurement of absorbance at 490 nm again. The rate of kynurenine production was calculated according to the following expression. Rate of kynurenine production (%) for each compound in the case of using rhIDO={(Absorbance at 490 nm in the tryptophan-containing aqueous solution comprising rhIDO and the compound of the present invention−Absorbance of the background)/(Absorbance at 490 nm in the tryptophan-containing aqueous solution without the addition of the compound solution−Absorbance of the background)}×100 Enzyme Assay Protocol Using rhTDO (Recombinant Human TDO)

In test [2] the target is rhTDO (recombinant human TDO) (Homo sapiens, UniProt P48775). Briefly: Enzyme assay using rhTDO (rate of kynurenine production). It counts as biochemical. The settings on record: 2 h; final concentration of the compound 10 μM; rate relative to reaction without compound; read-out: rhTDO-mediated kynurenine production. How it is done: 4 μL of a compound solution was added to 176 μL of a rhTDO reaction solution (0.5 M potassium phosphate buffer (20 μL), 0.2 M ascorbic acid (20 μL), 0.5 mM methylene blue (4 μL), 10 mg/mL catalase (2 μL), H2O (128 μL), and rhTDO (2 μL)). The mixture was pipetted and preincubated at 37° C. for 10 minutes. Then, the whole amount was brought to 200 μL by the addition of 20 μL of a 20 mM aqueous tryptophan solution, and the mixture was pipetted again and reacted at 37° C. for 120 minutes. After the reaction, the enzymatic reaction was terminated by the addition of 40 μL of a 30% [v/v] aqueous trichloroacetic acid solution to the reaction solution. The mixture was well stirred by pipetting and heated at 50° C. for 15 minutes so that N-formylkynurenine was converted to kynurenine. The reaction solution thus heated was centrifuged (15,000 rpm, 5 min, 24° C.), and 150 μL of the supernatant was transferred to a transparent 96-well flat-bottomed plate, followed by the measurement of absorbance at 490 nm using SpectraMax M5 SK (background measurement). After the measurement, a solution of 2% [w/v] p-dimethylbenzaldehyde in acetic acid was added at 150 μL/well and reacted for 5 minutes, followed by the measurement of absorbance at 490 nm again. The rate of kynurenine production was calculated according to the following expression. Rate of kynurenine production (%) for each compound in the case of using rhTDO={(Absorbance at 490 nm in the tryptophan-containing aqueous solution comprising rhTDO and the compound of the present invention−Absorbance of the background)/(Absorbance at 490 nm in the tryptophan-containing aqueous solution without the addition of the compound solution−Absorbance of the background)}×100 IDO Cell-Based Assay Protocol

The next test concerns the target T1, IDO in A431 cells (Homo sapiens, UniProt P14902).
T1 construct: endogenous in cells; host or cells: A431 cells, IFN-γ stimulated
The test can be described thus: IDO cell-based assay, kynurenine production in IFN-γ stimulated A431 cells. As to conditions: A-431, 24 h; final concentration of the compound 10 μM; rate relative to culture without compound. How it is done:
A431 cells (3.0×10^5 cells/mL) suspended in a culture medium for assay (D-MEM; Wako 040-30095, 5% FBS, 50 units/mL penicillin, 50 μg/mL streptomycin, and 2 mM L-glutamine) were inoculated at 100 μL/well to a transparent 96-well flat-bottomed plate and cultured at 37° C. for 24 hours in 5% CO2. The culture medium was removed from the cells thus cultured. A tryptophan-containing culture medium (culture medium for assay supplemented with 178 μM L-tryptophan) was added at 80 μL/well, and further, a compound solution was added at 10 μL/well. The cells were preincubated for 1 hour. Then, the whole amount was brought to 100 μL/well by the addition of 10 μL/well of IFN-γ diluted into 100 ng/mL with a tryptophan-containing culture medium, and the cells were cultured for 24 hours. After the culture, absorbance was measured at 460 nm using SpectraMax MSSK (Molecular Devices, LLC) (background measurement). After the measurement, a kynurenine quantification reagent (prepared with 7% [v/v] aqueous trichloroacetic acid solution and a solution of 2% [w/v] p-dimethylbenzaldehyde in acetic acid at 2:5 [v/v]) was added at 200 μL/well and reacted for 5 minutes, followed by the measurement of absorbance at 460 nm again. The rate of kynurenine production was calculated according to the following expression. Rate of kynurenine production (%) for each compound in the case of using A431 cells={(Absorbance at 460 nm in the tryptophan-containing culture medium comprising the A431 cells and the solution of the compound of the present invention−Absorbance of the background)/(Absorbance at 460 nm in the tryptophan-containing culture medium without the addition of the compound solution−Absorbance of the background)}×100 TDO Cell-Based Assay Protocol

The target of the next test is T2, TDO in A172 cells (Homo sapiens, UniProt P48775).
T2 construct: endogenous in cells; host or cells: A172 cells
Briefly: TDO cell-based assay, kynurenine production in A172 cells. The settings on record: A 172; final concentration of the compound 10 μM; rate relative to culture without compound. As to the method:
A172 cells (3.0×10^5 cells/mL) suspended in a culture medium for assay (PRMI-1640; Wako 186-02155, 5% FBS, 50 units/mL penicillin, and 50 μg/mL streptomycin) were inoculated at 100 μL/well to a transparent 96-well flat-bottomed plate and cultured at 37° C. for 24 hours in 5% CO2. The culture medium was removed from the cells thus cultured. A culture medium for assay was added at 80 μL/well, and further, a compound solution was added at 10 μL/well. The cells were preincubated for 1 hour. Then, the whole amount was brought to 100 μL/well by the addition of 10 μL/well of a 5 mM aqueous tryptophan solution (final concentration of L-tryptophan: 524 μM), and the cells were cultured for 24 hours. After the culture, absorbance was measured at 460 nm using SpectraMax MSSK (Molecular Devices, LLC) (background measurement). After the measurement, a kynurenine quantification reagent (prepared with 7% [v/v] aqueous trichloroacetic acid solution and a solution of 2% [w/v] p-dimethylbenzaldehyde in acetic acid at 2:5 [v/v]) was added at 200 μL/well and reacted for 5 minutes, followed by the measurement of absorbance at 460 nm again. The rate of kynurenine production was calculated according to the following expression. Rate of kynurenine production (%) for each compound in the case of using A172 cells={(Absorbance at 460 nm in the tryptophan-containing culture medium comprising the A172 cells and the solution of the compound of the present invention−Absorbance of the background)/(Absorbance at 460 nm in the tryptophan-containing culture medium without the addition of the compound solution−Absorbance of the background)}×100

T1 sequence (P14902 whole entry): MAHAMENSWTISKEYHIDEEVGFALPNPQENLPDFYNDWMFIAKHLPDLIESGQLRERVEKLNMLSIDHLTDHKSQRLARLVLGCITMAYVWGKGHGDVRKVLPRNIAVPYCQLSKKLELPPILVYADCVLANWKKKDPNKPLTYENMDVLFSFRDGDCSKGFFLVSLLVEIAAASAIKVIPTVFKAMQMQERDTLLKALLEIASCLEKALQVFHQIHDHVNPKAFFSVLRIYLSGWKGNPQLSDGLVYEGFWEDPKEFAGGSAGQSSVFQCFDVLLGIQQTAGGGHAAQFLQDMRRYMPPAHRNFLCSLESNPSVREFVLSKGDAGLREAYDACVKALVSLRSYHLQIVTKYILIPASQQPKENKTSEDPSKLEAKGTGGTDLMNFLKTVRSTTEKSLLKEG
Chain of rhIDO (recombinant human IDO) (P14902 whole entry): as above
Chain of rhTDO (recombinant human TDO) (P48775 whole entry): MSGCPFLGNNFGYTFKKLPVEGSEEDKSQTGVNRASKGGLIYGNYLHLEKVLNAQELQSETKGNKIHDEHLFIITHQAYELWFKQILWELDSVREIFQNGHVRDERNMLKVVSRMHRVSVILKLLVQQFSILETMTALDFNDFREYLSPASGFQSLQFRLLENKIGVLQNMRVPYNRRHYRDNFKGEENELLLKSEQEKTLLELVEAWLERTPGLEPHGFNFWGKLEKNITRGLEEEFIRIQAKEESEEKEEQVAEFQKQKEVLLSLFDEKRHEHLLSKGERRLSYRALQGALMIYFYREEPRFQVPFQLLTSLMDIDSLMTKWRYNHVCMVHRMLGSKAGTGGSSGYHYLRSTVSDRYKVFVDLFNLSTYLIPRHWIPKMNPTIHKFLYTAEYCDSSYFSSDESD
T2 sequence (P48775 whole entry): as above

Take `N=C(N)SCc1ccc2ccccc2c1CSC(=N)N` [Compound 3, naphthalene-1,2-diylbis(methylene) dicarbamimidothioate dihydrobromide]: the remaining activity at 10 µM was determined as 6% in test [1], 30% in test [2], 7% on IDO in A431 cells and 78% on TDO in A172 cells.

`CC(C)(C)c1ccc(CSC(=N)N)c(CSC(=N)N)c1` [Compound 4, (4-(tert-butyl)-1,2-phenylene)bis(methylene) dicarbamimidothioate dihydrobromide]: the remaining activity at 10 µM in test [1] worked out at 64%; in test [2], 56%; at IDO in A431 cells, 68%; at TDO in A172 cells, 102%.

Regarding `N=C(N)SCc1nc2ccccc2nc1CSC(=N)N` [Compound 5, quinoxaline-2,3-dilylbis(methylene) dicarbamimidothioate dihydrobromide], the remaining activity at 10 µM in test [1] is 69%; in test [2], 84%; at IDO in A431 cells, 85%; on TDO in A172 cells, 113%.

On to `N=C(N)SCc1c(F)c(F)c(F)c(F)c1CSC(=N)N` [Compound 6, (perfluoro-1,2-phenylene)bis(methylene) dicarbamimidothioate dihydrobromide], for which the remaining activity at 10 µM in test [1] is 15%; in test [2], 9%; at IDO in A431 cells, 75%; on TDO in A172 cells, 74%.

For the compound `C/N=C(\NC)SCc1ccccc1CS/C(=N/C)NC` [Compound 8, 1,2-phenylenebis(methylene) (E,E)-bis(N,N′-dimethylcarbamimidothioate) dihydrodhloride], the remaining activity at 10 µM stood at 77% in test [1], 52% in test [2], 10% at IDO in A431 cells and 20% on TDO in A172 cells.

In the case of `c1ccc(CCN2CN=C(SCc3ccccc3CSC3=NCN(CCc4ccccc4)CN3)NC2)cc1` [Compound 9, 1,2-bis(((5-phenethyl-1,4,5,6-tetrahydro-1,3,5-triazin-2-yl)thio)methyl)benzene], the remaining activity at 10 µM in test [1] is 30%; in test [2], 36%; on IDO in A431 cells, 10%; at TDO in A172 cells, 0%.

`CNC(=N)SCc1ccccc1CSC(=N)NC` [Compound 11, 1,2-phenylenebis(methylene) bis(methylcarbamimidothioate) dihydrochloride]: the remaining activity at 10 µM in test [1] is 51%; in test [2] it was 58%; on IDO in A431 cells, 6%; at TDO in A172 cells, 19%.

Regarding `Cc1ccc(CSC(=N)N)c(CSC(=N)N)c1` [Compound 12, (4-methyl-1,2-phenylene)bis(methylene) dicarbamimidothioate dihydrobromide], the remaining activity at 10 µM was determined as 20% in test [1], 10% in test [2], 13% at IDO in A431 cells and 0% at TDO in A172 cells.

Turning to `N=C(N)SCc1cccc(F)c1CSC(=N)N` [Compound 13, (3-fluoro-1,2-phenylene)bis(methylene) dicarbamimidothioate dihydrobromide], the remaining activity at 10 µM was 15% in test [1], 9% in test [2], 32% at IDO in A431 cells and 42% at TDO in A172 cells.

Turning to `c1ccc(CN2CN=C(SCc3ccccc3CSC3=NCN(Cc4ccccc4)CN3)NC2)cc1` [Compound 14, 1,2-bis(((5-benzyl-1,4,5,6-tetrahydro-1,3,5-triazin-2-yl)thio)methyl)benzene], the remaining activity at 10 µM was 52% in test [1], 31% in test [2], 7% on IDO in A431 cells and 4% on TDO in A172 cells.

Turning to `c1cnc(SCc2ccccc2CSc2ncccn2)nc1` [Compound 16, 1,2-bis((pyrimidin-2-ylthio)methyl)benzene], the remaining activity at 10 µM in test [1] turned out to be 66%; in test [2], 68%; on IDO in A431 cells it was 76%; at TDO in A172 cells it was 74%.

For the compound `Clc1ccc(CCN2CN=C(SCc3ccccc3CSC3=NCN(CCc4ccc(Cl)cc4)CN3)NC2)cc1` [Compound 17, 1,2-bis(((5-(4-chlorophenethyl)-1,4,5,6-tetrahydro-1,3,5-triazin-2-yl)thio)methyl)benzene], the remaining activity at 10 µM is 30% in test [1], 25% in test [2], 8% at IDO in A431 cells and 0% on TDO in A172 cells.
